Measured values taken from patent US20100234364A1, “CCR2 INHIBITORS AND METHODS OF USE THEREOF” (priority 2007, published 2010).
pIC50: −log10 of the molar value.

Target: T1, CCR2 (Homo sapiens, UniProt P41597)
T1 construct: chemokine expressing cells (such as THP-1 cells for CCR2 assay or MOLT-4 cells for CCR9 assay); host or cells: THP-1 cells
Test: chemotaxis (conventional migration), ligand binding or calcium mobilization (calcium flux) assays
Format: cell-based
Experimental: THP-1 cells and MOLT-4 cells were obtained from the American Type Culture Collection (Manassas, Va.) and cultured in RPMI tissue culture medium supplemented with 10% fetal calf serum (FCS) in a humidified 5% CO2 incubator at 37° C. Recombinant human chemokine proteins MCP-1 and TECK were obtained from R&D Systems (Minneapolis, Minn.). ^125I-labeled MCP-1 protein was obtained from Amersham (Piscataway, N.J.). ChemoTX® chemotaxis microchambers were purchased from Neuro Probe (Gaithersburg, Md.). CyQUANT® cell proliferation kits were purchased from Molecular Probes (Eugene, Oreg.). Calcium indicator dye Fluo-4 AM was purchased from Molecular Devices (Mountain View, Calif.).
Conventional-migration assay was used to determine the efficacy of potential receptor antagonists in blocking migration mediated through chemokines (such as CCR2 or CCR9). This assay was routinely performed using the ChemoTX® microchamber system with a 5-μm pore-sized polycarbonate membrane. To begin such an assay, chemokine expressing cells (such as THP-1 cells for CCR2 assay or MOLT-4 cells for CCR9 assay) were harvested by centrifugation of cell suspension at 1000 RPM on a GS-6R Beckman centrifuge. The cell pellet was resuspended in chemotaxis buffer (HBSS with 0.1% BSA) at 10×10^6cells/mL for CCR2 assay (5 ×10^6cells/mL for CCR9 assay). Test compounds at desired concentrations were prepared from 10 mM stock solutions by serial dilutions in chemotaxis buffer. An equal volume of cells and compounds were mixed and incubated at room temperature for 15 minutes. Afterwards, 20 μL of the mixture was transferred onto the porous membrane of a migration microchamber, with 29 μL of chemokine ligand (0.1 nM chemokine MCP-1 protein for CCR2 assay or 50 nm chemokine TECK protein for CCR9 assay) placed at the lower chamber. Following an incubation at 37° C. (90-minute for CCR2; 150-minute for CCR9), during which cells migrated […] the chemokine gradient, the assay was terminated by removing the cell drops from atop the filter. To quantify cells migrated across the membrane, 5 μL of 7X CyQUANT® solution was added to each well in the lower chamber, and the fluorescence signal measured on a Spectrafluor Plus fluorescence plate reader (TECAN, Durham, N.C.). The degree of inhibition was determined by comparing migration signals between compound-treated and untreated cells. IC50 calculation was further performed by non-linear squares regression analysis using Graphpad Prism (Graphpad Software, San Diego, Calif.).
Calcium flux assay measures an increase in intracellular calcium following ligand-induced receptor activation. In the screen of chemokine antagonists, it was used as a secondary assay carried out on a FLIPR® machine (Molecular Devices, Mountain View, Calif.). To begin an assay, chemokine expressing cells (such as THP-1 cells for CCR2 assay or MOLT-4 cells for CCR9 assay) were harvested by centrifugation of cell suspension, and resuspended to 1.5×10^6 cells/mL in HBSS (with 1% fetal calf serum). Cells were then labeled with a calcium indicator dye Fluo-4 AM for 45 minutes at 37° C. with gentle shaking. Following incubation, cells were pelletted, washed once with HBSS and resuspended in the same buffer at a density of 1.6×10^6 cells/mL. One hundred microliters of labeled cells were mixed with 10 μL of test compound at the appropriate concentrations on an assay plate. Chemokine protein (MCP-1 at a final concentration of 0.1 nM for CCR2 assay or TECK at a final concentration of 25 nM for CCR9 assay) to activate the receptor. The degree of inhibition was determined by comparing calcium signals between compound-treated and untreated cells. IC50 calculations were further performed by non-linear squares regression analysis using Graphpad Prism (Graphpad Software, San Diego, Calif.).
Ligand binding assay was used to determine the ability of potential CCR2 antagonists to block the interaction between CCR2 and its ligand MCP-1. […]

[1] = Table 2: activity in one of the chemotaxis
[2] = Table 3: activity in one of the chemotaxis

T1 sequence (P41597 whole entry): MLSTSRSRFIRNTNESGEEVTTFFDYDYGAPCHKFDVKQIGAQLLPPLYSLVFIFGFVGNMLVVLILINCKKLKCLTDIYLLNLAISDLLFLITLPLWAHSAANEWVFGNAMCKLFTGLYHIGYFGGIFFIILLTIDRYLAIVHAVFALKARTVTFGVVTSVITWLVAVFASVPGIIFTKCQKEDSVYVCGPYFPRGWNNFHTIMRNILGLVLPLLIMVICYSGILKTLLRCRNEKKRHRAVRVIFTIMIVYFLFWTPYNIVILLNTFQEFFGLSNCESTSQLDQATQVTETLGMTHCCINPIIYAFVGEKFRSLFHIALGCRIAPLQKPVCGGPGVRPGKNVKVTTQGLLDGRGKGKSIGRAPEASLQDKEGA

## O=S(=O)(Nc1cc(Cl)ccc1C(O)c1ccccc1)c1ccc(Cl)c(C(F)(F)F)c1 (stereo not shown)
[1]
  pIC50: > 6.30

## O=C(c1ccncc1)c1ccc(Cl)cc1NS(=O)(=O)c1ccc(Cl)c(C(F)(F)F)c1
[1]
  pIC50: > 6.30

## COC(=O)C1CCCN1C(=O)c1ccc(Cl)cc1NS(=O)(=O)c1ccc(Cl)c(C(F)(F)F)c1 (stereo not shown)
[1]
  pIC50: > 6.30

## O=S(=O)(Nc1cc(Cl)ccc1Oc1ccccc1)c1ccc(Cl)c(C(F)(F)F)c1
[1]
  pIC50: > 6.30

## O=C(c1ccc(Cl)cc1NS(=O)(=O)c1ccc(Cl)c(C(F)(F)F)c1)N1CCOCC1
[1]
  pIC50: > 6.30

## Cn1cncc1C(=O)c1ccc(Cl)cc1NS(=O)(=O)c1ccc(Cl)c(C(F)(F)F)c1
[1]
  pIC50: > 6.30

## O=C(c1ccc(Cl)cc1NS(=O)(=O)c1ccc(Cl)c(C(F)(F)F)c1)N1CCS(=O)(=O)CC1
[1]
  pIC50: > 6.30

## CN(C)C(=O)C1CCCN1C(=O)c1ccc(Cl)cc1NS(=O)(=O)c1ccc(Cl)c(C(F)(F)F)c1 (stereo not shown)
[1]
  pIC50: > 6.30

## O=C(c1ccccc1)c1ccc(Cl)cc1NS(=O)(=O)c1ccc(F)c(F)c1
[1]
  pIC50: > 6.30

## O=C(c1ccccc1)c1ccc(Cl)cc1NS(=O)(=O)c1cccc(C(F)(F)F)c1
[1]
  pIC50: > 6.30

## O=C(c1ccccc1)c1ccc(Cl)cc1NS(=O)(=O)c1ccc(Cl)cc1
[1]
  pIC50: > 6.30

## O=C(c1ccc(Cl)cc1NS(=O)(=O)c1ccc(Cl)c(C(F)(F)F)c1)N1CCCC1
[1]
  pIC50: > 6.30

## O=C(c1cocn1)c1cc(Cl)ccc1NS(=O)(=O)c1ccc(Cl)c(C(F)(F)F)c1
[1]
  pIC50: > 6.30

## O=C(c1cccnc1)c1cc(F)c(F)cc1NS(=O)(=O)c1ccc(Cl)c(C(F)(F)F)c1
[1]
  pIC50: > 6.30

## O=C(c1ccc(Cl)cc1NS(=O)(=O)c1ccc(Cl)c(Cl)c1)N1CCOCC1
[1]
  pIC50: > 6.30

## O=C(c1ccccc1)c1ccc(Br)cc1NS(=O)(=O)c1ccc(Cl)c(C(F)(F)F)c1
[1]
  pIC50: > 6.30

## O=C(c1cccnc1)c1cc(Cl)ccc1NS(=O)(=O)c1ccc(Cl)c(Cl)c1
[1]
  pIC50: > 6.30

## Cc1ccc(C(=O)c2cc(Cl)ccc2NS(=O)(=O)c2ccc(Cl)c(Cl)c2)cn1
[1]
  pIC50: > 6.30

## O=C(O)c1cc(S(=O)(=O)Nc2ccc(Cl)cc2C(=O)c2ccccc2)c(F)cc1Cl
[1]
  pIC50: > 6.30

## Cn1nc(-c2cc(Cl)ccc2NS(=O)(=O)c2ccc(Cl)c(C(F)(F)F)c2)c2ccccc21
[1]
  pIC50: > 6.30

## O=C(c1ccc(Cl)cc1NS(=O)(=O)c1ccc(Cl)c([N+](=O)[O-])c1)N1CCOCC1
[1]
  pIC50: > 6.30

## Cn1nnnc1-c1ccc(Cl)cc1NS(=O)(=O)c1ccc(Cl)c(C(F)(F)F)c1
[1]
  pIC50: > 6.30

## O=C(c1ccccc1)c1ccc(F)cc1NS(=O)(=O)c1ccc(Cl)c(C(F)(F)F)c1
[1]
  pIC50: > 6.30

## Cc1cc(S(=O)(=O)Nc2cc(Cl)ccc2C(=O)N(C)c2ccccn2)ccc1Cl
[1]
  pIC50: > 6.30

## CN(C(=O)c1ccc(Cl)cc1NS(=O)(=O)c1cccc(C(F)(F)F)c1)c1ccccn1
[1]
  pIC50: > 6.30

## O=C(c1ccc(Cl)cc1NS(=O)(=O)c1ccc(Cl)c(C(F)(F)F)c1)c1ccnc2[nH]ccc12
[1]
  pIC50: > 6.30

## CO/N=C(/c1ccc(Cl)cc1NS(=O)(=O)c1ccc(Cl)c(C(F)(F)F)c1)c1ccnc2[nH]ccc12
[1]
  pIC50: > 6.30

## Cc1nnc(-c2cc(Cl)ccc2NS(=O)(=O)c2ccc(C(C)(C)C)cc2)c2ccccc12
[1]
  pIC50: > 6.30

## CC(C)(C)c1ccc(S(=O)(=O)Nc2ccc(Cl)cc2-c2nncc3ccccc23)cc1
[1]
  pIC50: > 6.30

## N#Cc1cc(S(=O)(=O)Nc2cc(Cl)ccc2C(=O)c2ccccc2)ccc1F
[2]
  pIC50: 5.30 to 6.30

## Cc1ccc(C(=O)c2ccccc2)c(NS(=O)(=O)c2ccc(Cl)c(C(F)(F)F)c2)c1
[2]
  pIC50: 5.30 to 6.30

## COc1ccc(NS(=O)(=O)c2ccc(Cl)c(Cl)c2)c(C(=O)N2CCOCC2)c1
[2]
  pIC50: 5.30 to 6.30

## O=C(c1ccccn1)c1cc(Cl)ccc1NS(=O)(=O)c1ccc(Cl)c(C(F)(F)F)c1
[2]
  pIC50: 5.30 to 6.30

## Cn1ccnc1C(=O)c1cc(Cl)ccc1NS(=O)(=O)c1ccc(Cl)c([N+](=O)[O-])c1
[2]
  pIC50: 5.30 to 6.30

## O=S(=O)(Nc1ccccc1Oc1ccccc1)c1ccc(Cl)c(Cl)c1
[2]
  pIC50: 5.30 to 6.30

## CNC(=O)C1CCCN1C(=O)c1ccc(Cl)cc1NS(=O)(=O)c1ccc(Cl)c(C(F)(F)F)c1 (stereo not shown)
[2]
  pIC50: 5.30 to 6.30

## O=C(c1ccccn1)c1cc(Cl)ccc1NS(=O)(=O)c1ccc(Cl)c(Cl)c1
[2]
  pIC50: 5.30 to 6.30

## O=C(c1ccc(Cl)cc1NS(=O)(=O)c1ccc(Cl)cc1)N1CCOCC1
[2]
  pIC50: 5.30 to 6.30

## O=C(c1cc(Br)ccc1NS(=O)(=O)c1ccc(Cl)cc1)N1CCOCC1
[2]
  pIC50: 5.30 to 6.30

## O=C(c1ccccc1)c1cc(Cl)ccc1NS(=O)(=O)c1cccc(C(F)(F)F)c1
[2]
  pIC50: 5.30 to 6.30

## O=C(c1cc(Cl)ccc1NS(=O)(=O)c1ccc(Cl)cc1)N1CCOCC1
[2]
  pIC50: 5.30 to 6.30

## O=C(c1ccccc1)c1cc(Cl)ccc1NS(=O)(=O)c1ccc(F)c(Cl)c1
[2]
  pIC50: 5.30 to 6.30

## O=C(c1ccncc1)c1cc(Cl)ccc1NS(=O)(=O)c1ccc(Cl)cc1
[2]
  pIC50: 5.30 to 6.30

## Cc1cccc(S(=O)(=O)Nc2ccc(Cl)cc2C(=O)N2CCOCC2)c1
[2]
  pIC50: 5.30 to 6.30

## O=C(c1cc(Cl)ccc1NS(=O)(=O)c1cccc(Cl)c1)N1CCOCC1
[2]
  pIC50: 5.30 to 6.30

## O=C(c1cc(Cl)ccc1NS(=O)(=O)c1ccc(Cl)c(Cl)c1)N1CCOCC1
[2]
  pIC50: 5.30 to 6.30

## O=C(c1cc(Cl)ccc1NS(=O)(=O)c1ccc(Cl)cc1Cl)N1CCOCC1
[2]
  pIC50: 5.30 to 6.30

## Cc1cc(S(=O)(=O)Nc2cc(Cl)ccc2C(=O)N2CCOc3cccnc32)ccc1Cl
[2]
  pIC50: 5.30 to 6.30

## O=C(c1cc(Cl)ccc1NS(=O)(=O)c1ccc(Br)cc1)N1CCOCC1
[2]
  pIC50: 5.30 to 6.30

## O=C(c1cc(Cl)ccc1NS(=O)(=O)c1ccc(Cl)cc1)N1CCCCC1
[2]
  pIC50: 5.30 to 6.30

## O=C(c1ccc(Cl)cc1NS(=O)(=O)c1ccc(C(F)(F)F)cc1Cl)N1CCOCC1
[2]
  pIC50: 5.30 to 6.30

## CON=C(c1ccccc1)c1cc(Cl)ccc1NS(=O)(=O)c1ccc(Cl)c(Cl)c1
[2]
  pIC50: 5.30 to 6.30

## O=S(=O)(Nc1ccc(Cl)cc1Oc1ccccc1)c1ccc(Cl)c(Cl)c1
[2]
  pIC50: 5.30 to 6.30

## Cn1ccnc1C(=O)c1cc(Cl)ccc1NS(=O)(=O)c1ccc(Cl)c(Cl)c1
[2]
  pIC50: 5.30 to 6.30

## COC(=O)c1cc(NS(=O)(=O)c2ccc(Cl)c(Cl)c2)c(C(=O)c2ccccc2)cc1Cl
[2]
  pIC50: 5.30 to 6.30

## O=C(c1ccccc1)c1cc(Cl)ccc1NS(=O)(=O)c1ccc(Cl)c([N+](=O)[O-])c1
[2]
  pIC50: 5.30 to 6.30

## Cc1ccc(S(=O)(=O)Nc2ccc(Cl)cc2C(=O)c2ccccc2)cc1Cl
[2]
  pIC50: 5.30 to 6.30

## O=C(c1ccccc1)c1cc(Cl)ccc1NS(=O)(=O)c1ccc(C(F)(F)F)cc1[N+](=O)[O-]
[2]
  pIC50: 5.30 to 6.30

## O=S(=O)(Nc1ccc(Cl)cc1-c1ccccc1)c1ccc(Cl)c(Cl)c1
[2]
  pIC50: 5.30 to 6.30

## O=S(=O)(Nc1cc(Cl)ccc1-c1nnn[nH]1)c1ccc(Cl)c(C(F)(F)F)c1
[2]
  pIC50: 5.30 to 6.30

## O=S(=O)(Nc1cc(Cl)ccc1-c1ncco1)c1ccc(Cl)c(Cl)c1
[2]
  pIC50: 5.30 to 6.30

## O=S(=O)(Nc1ccc(Cl)cc1-c1ccccn1)c1ccc(Cl)c(C(F)(F)F)c1
[2]
  pIC50: 5.30 to 6.30

## O=C(O)C1CCCN1C(=O)c1ccc(Cl)cc1NS(=O)(=O)c1ccc(Cl)c(C(F)(F)F)c1 (stereo not shown)
[2]
  pIC50: 5.30 to 6.30

## O=C(c1ccc(Cl)cc1NS(=O)(=O)c1ccc(Br)c(F)c1)N1CCOCC1
[2]
  pIC50: 5.30 to 6.30

## O=C(c1ccccc1)c1ccc(Cl)cc1NS(=O)(=O)c1ccc(Cl)c(C(F)(F)F)c1 [drawing 278]
[1]
  pIC50: > 6.30

## O=C(c1ccc(Cl)cc1NS(=O)(=O)c1ccc(Cl)c(C(F)(F)F)c1)N1CCCCC1 [drawing 291]
[1]
  pIC50: > 6.30

## O=C(c1ccccc1)c1cc(Cl)ccc1NS(=O)(=O)c1ccc(Cl)c(Cl)c1 [drawing 296]
[1]
  pIC50: > 6.30

## O=C(c1ccccc1)c1cc(Cl)ccc1NS(=O)(=O)c1ccc(Cl)cc1 [drawing 298]
[1]
  pIC50: > 6.30

## O=C(c1ccccc1)c1cc(F)ccc1NS(=O)(=O)c1ccc(Cl)c(Cl)c1 [drawing 300]
[1]
  pIC50: > 6.30

## O=C(c1ccccc1)c1ccc(Br)cc1NS(=O)(=O)c1ccc(Cl)c(Cl)c1 [drawing 301]
[1]
  pIC50: > 6.30
